Patent US20160151377A1, “USE OF SIGMA RECEPTOR LIGANDS FOR THE PREVENTION AND TREATMENT OF PAIN ASSOCIATED TO INTERSTITIAL CYSTITIS/BLADDER PAIN SYNDROME (IC/BPS)” (LABORATORIOS DEL DR. ESTEVE S.A., priority 2013, published 2016)

What was measured:
[1] = system: cyclophosphamide-induced cystitis; format: in vivo, mice
Method: (§1) Testing took place during the light phase (from 9.00 h to 15.00 h).

[2] = system: cyclophosphamide-induced cystitis; conditions: cyclophosphamide 300 mg/kg i.p., WT mice
Method: as §1

[3] = system: sigma receptor; conditions: cited from earlier work
[4] = system: D2 receptors; conditions: compared with haloperidol; cited from earlier work
[5] = system: σ1 receptors; conditions: cited from earlier work; for affinity for σ1 receptors relative to haloperidol: rodent brain membranes and human neuroblastoma cells
[6] = system: sigma-1 receptors; conditions: both in experimental animals and human cells; cited from earlier work

O=P1(N(CCCl)CCCl)NCCCO1 (stereo not shown) [cyclophosphamide]
mechanical threshold for referred hyperalgesia ([1]; cyclophosphamide 100 mg/kg i.p., WT and σ1-KO mice): maximum reduction in the mechanical threshold
pain score (pain-related behaviors) [2]: maximum pain score

CC(C)=CCN1CCC2(C)c3cc(O)ccc3CC1C2C (stereo not shown) [pentazocine]
affinity of sigma receptors for analgesics [3]: very high affinity

OC1(c2ccc(Cl)cc2)CCNCC1 [metabolite I, 4-(4-chlorophenyl)-4-hydroxypiperidine]
affinity for D2 receptors [4]: no affinity
affinity for σ1 receptors relative to haloperidol [5]: less affinity than haloperidol

CN1CC[C@]23c4c5ccc(O)c4O[C@H]2[C@@H](O)C=C[C@H]3[C@H]1C5.Cl [morphine, Morphine hydrochloride]
50% mechanical threshold, referred mechanical hyperalgesia ([1]; mouse, in vivo): increase the mechanical threshold to above the control value

OC(CCCN1CCC(O)(c2ccc(Cl)cc2)CC1)c1ccc(F)cc1 (stereo not shown) [metabolite II, 4-(4-chlorophenyl)-[…]-(4-fluorophenyl)-4-hydroxy-1-piperidinebutanol]
affinity for D2 receptors [4]: much lower
blockade of sigma-1 receptors [6]: irreversible blockade
affinity for sigma-1 receptors [5]: high affinity (in the low nanomolar range)
affinity for σ1 receptors relative to haloperidol [5]: less affinity than haloperidol
